Results on five compounds are retold here after article PMC8667945, “Structure-based virtual screening and biological evaluation of novel small-molecule BTK inhibitors” (Journal of Enzyme Inhibition and Medicinal Chemistry, 2021).

Assay [1] addresses T1, Bruton tyrosine kinase (BTK) (Homo sapiens, UniProt Q06187). As to the kind of experiment: Z'LYTE biochemical kinase inhibition assay, dose response.
The target in assay [2] is T1, Bruton tyrosine kinase (BTK). Put plainly: Z'LYTE biochemical kinase inhibition assay, single dose (% inhibition at […]).

T1 sequence (Q06187 2-659): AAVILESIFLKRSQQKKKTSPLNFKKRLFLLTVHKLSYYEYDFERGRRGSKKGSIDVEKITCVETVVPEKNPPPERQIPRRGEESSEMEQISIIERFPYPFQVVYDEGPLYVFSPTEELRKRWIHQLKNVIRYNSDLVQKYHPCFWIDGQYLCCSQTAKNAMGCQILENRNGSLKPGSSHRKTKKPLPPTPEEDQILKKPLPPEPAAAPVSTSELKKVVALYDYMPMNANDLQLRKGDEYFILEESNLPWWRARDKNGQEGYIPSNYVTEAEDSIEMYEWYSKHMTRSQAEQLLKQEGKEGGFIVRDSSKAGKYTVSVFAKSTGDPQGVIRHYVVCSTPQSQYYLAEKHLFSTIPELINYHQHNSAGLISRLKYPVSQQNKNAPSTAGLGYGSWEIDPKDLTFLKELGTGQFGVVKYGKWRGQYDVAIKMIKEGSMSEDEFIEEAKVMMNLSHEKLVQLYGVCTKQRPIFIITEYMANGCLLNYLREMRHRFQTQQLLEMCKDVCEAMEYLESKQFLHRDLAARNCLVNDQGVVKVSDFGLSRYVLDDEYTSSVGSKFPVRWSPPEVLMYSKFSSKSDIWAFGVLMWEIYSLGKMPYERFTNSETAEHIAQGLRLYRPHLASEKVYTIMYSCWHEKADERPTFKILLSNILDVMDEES

As to `C(=Nc1nc(NCc2ccccc2)nc2[nH]ncc12)c1cccs1` [NSC726593], 5000 nM corresponded to half-maximal inhibition in assay [1] (IC50).

On to `COc1ccc(/C=N/Nc2nc(SCc3ccccc3)nc3[nH]ncc23)cc1OC` [NSC726558], for which the inhibition – broadly, the percentage by which the read-out fell short of the control – at 10 µM in assay [2] was 59%.

Consider `C(=Nc1nc(N2CCOCC2)nc2[nH]ncc12)c1ccco1` [NSC725686], for which, in assay [1], the IC50 (usually the concentration that inhibits the measured activity by half) turned out to be 840 nM.

Compound `O=C(Sc1nc(SC(=O)c2ccccc2)c2cn[nH]c2n1)c1ccccc1` [NSC722944] gave an IC50 in assay [1] of 1600 nM.

Consider `N#CCc1n[nH]c2nc(SCc3ccccc3)nc(Nc3nnc(S)s3)c12` [NSC724520], for which, in assay [1], the IC50 was determined as 2100 nM.
